Test results taken from US20150368209A1, “4-Pyrimidinylamino-benzenesulfonamide derivatives and their use for the inhibition of polo-like kinase 1 (PLK1) for the treatment of cancer and their use for the treatment of bacterial infections” (VICHEM CHEMIE KUTATÓ KFT., priority 2013, published 2015).
pIC50: −log10 of the molar value. Converted amounts (≈) assume the structure as drawn.

Key:
human PLK1 kinase domain = target: T1, human PLK1 kinase domain (Homo sapiens, UniProt P53350); assay: In vitro PLK1 assay (IMAP fluorescence polarization kinase assay); type: biochemical; conditions: for pIC50: 30 nM PLK1 kinase domain, 16 μM ATP (=Kmapp), 90 min at room temperature; for inhibition at 10 µM: at 10 uM compound
T1 construct: Each reaction consisted of 30 nM enzyme PLK1 kinase domain
T1 sequence (P53350 53-305 limits assumed): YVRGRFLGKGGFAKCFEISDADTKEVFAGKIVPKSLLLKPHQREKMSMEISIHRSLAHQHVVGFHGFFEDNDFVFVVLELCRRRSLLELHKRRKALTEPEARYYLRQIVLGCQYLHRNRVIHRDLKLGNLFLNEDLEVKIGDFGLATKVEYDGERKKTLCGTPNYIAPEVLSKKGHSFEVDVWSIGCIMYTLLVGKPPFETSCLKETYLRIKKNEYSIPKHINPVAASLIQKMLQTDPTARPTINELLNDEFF
Description: The activity of the compounds described in the present invention was determined using a commercially available IMAP Screening Express Assay Kit (Molecular devices).
This method measures the change in the fluorescent polarization of a fluorescently-labeled peptide due to the effect of human PLK1 kinase domain on it. PLK1 kinase assays were performed in low protein binding 384-well plates (Corning 3676). Test compounds were diluted in 100% DMSO to 5 mM stock concentration, the further dilutions were made in H2O or 100% DMSO to desirable concentrations.
Each reaction consisted of 30 nM enzyme PLK1 kinase domain, 400 nM 5TAMRA-RGSFNDTLDFD-NH2 (Genecust Europe), 16 μM ATP (=Kmapp, Sigma-Aldrich) and kinase buffer: 20 mM HEPES pH 7.5 (Sigma-Aldrich), 1 mM DTT (Sigma-Aldrich), 10 mM MgCl2 (Sigma-Aldrich), 0.01% Triton X-100 (Sigma-Aldrich).
For each reaction, 4 or 6 μl containing 5TAMRA-RGSFNDTLDFD-NH2, ATP and kinase buffer were combined with 2 μl diluted compound in H2O or 0.04 μl compound in 100% DMSO. The kinase reaction was started by the addition of 2 μl diluted enzyme. The reaction was allowed to run for 90 minutes at room temperature. The reaction was stopped by adding 15 μl IMAP beads (1:1200 beads in progressive (40% buffer A, 60% buffer B) 1× buffer). After an additional 60 minutes, fluorescent polarization (Ex: 550-10 nm, Em: 590-10 nm, Dich: 561 nm) was measured using Analyst GT multimode reader (Molecular Devices).

M. tuberculosis H37Rv = assay: Resazurin reduction microtiter assay (REMA), growth inhibition and MIC determination; type: cell-based; conditions: Mycobacterium tuberculosis, 168 h, 7 days at 37° C.; for inhibition at 20 µM: at 20 uM compound, read-out: H37Rv inh % at 20 uM; for MIC: two-fold serial dilution from 100 to 0.16 μM, read-out: H37Rv MIC90

In the case of Cc1noc(NS(=O)(=O)c2ccc(Nc3cc(-c4ccccc4C(F)(F)F)ncn3)cc2)c1C [Example 1, N-(3,4-Dimethyl-isoxazol-5-yl)-4-[6-(2-trifluoromethyl-phenyl)-pyrimidin-4-ylamino]-benzenesulfonamide], the pIC50 (human PLK1 kinase domain) was 5.84, the inhibition at 10 µM (human PLK1 kinase domain) was 96.1% and the inhibition at 20 µM (M. tuberculosis H37Rv) was 101%. The MIC (M. tuberculosis H37Rv) was 2.77 µM (≈ 1.35 µg/mL).
For Cc1noc(NS(=O)(=O)c2ccc(Nc3cc(-c4ccccc4OC(F)(F)F)ncn3)cc2)c1C [Example 2, N-(3,4-Dimethyl-isoxazol-5-yl)-4-[6-(2-trifluoromethoxy-phenyl)-pyrimidin-4-ylamino]-benzenesulfonamide], the pIC50 (human PLK1 kinase domain) was 6.16, the inhibition at 10 µM (human PLK1 kinase domain) was 69% and the inhibition at 20 µM (M. tuberculosis H37Rv) was 102%. For the same compound, the MIC (M. tuberculosis H37Rv) was 9.71 µM (≈ 4.91 µg/mL).
Cc1noc(NS(=O)(=O)c2ccc(Nc3cc(-c4cccc5c4OCO5)ncn3)cc2)c1C [Example 3, 4-(6-Benzo[1,3]dioxol-4-yl-pyrimidin-4-ylamino)-N-(3,4-dimethyl-isoxazol-5-yl)-benzenesulfonamide] was tested, and the inhibition at 10 µM (human PLK1 kinase domain) was 48.5% and the inhibition at 20 µM (M. tuberculosis H37Rv) was -7.2%.
Compound Cc1noc(NS(=O)(=O)c2ccc(Nc3cc(-c4ccccc4Oc4ccccc4)ncn3)cc2)c1C [Example 4, N-(3,4-Dimethyl-isoxazol-5-yl)-4-[6-(2-phenoxy-phenyl)-pyrimidin-4-ylamino]-benzenesulfonamide] has an inhibition at 10 µM (human PLK1 kinase domain) of 52.7% and an inhibition at 20 µM (M. tuberculosis H37Rv) of 39%.
With COc1ccc(C(C)C)cc1-c1cc(Nc2ccc(S(=O)(=O)Nc3onc(C)c3C)cc2)ncn1 [Example 5, N-(3,4-Dimethyl-isoxazol-5-yl)-4-[6-(5-isopropyl-2-methoxy-phenyl)-pyrimidin-4-ylamino]-benzenesulfonamide] the inhibition at 10 µM (human PLK1 kinase domain) was 43.2%, the inhibition at 20 µM (M. tuberculosis H37Rv) was 99.2% and the MIC (M. tuberculosis H37Rv) was 16 µM (≈ 7.9 µg/mL).
Compound COc1ccc(OC)c(-c2cc(Nc3ccc(S(=O)(=O)Nc4onc(C)c4C)cc3)ncn2)c1 [Example 7, 4-[6-(2,5-Dimethoxy-phenyl)-pyrimidin-4-ylamino]-N-(3,4-dimethyl-isoxazol-5-yl)-benzenesulfonamide] has a pIC50 (human PLK1 kinase domain) of 6.72, an inhibition at 10 µM (human PLK1 kinase domain) of 59.6% and an inhibition at 20 µM (M. tuberculosis H37Rv) of 58.2%.
CCOc1ccccc1-c1cc(Nc2ccc(S(=O)(=O)Nc3onc(C)c3C)cc2)ncn1 [Example 8, N-(3,4-Dimethyl-isoxazol-5-yl)-4-[6-(2-ethoxy-phenyl)-pyrimidin-4-ylamino]-benzenesulfonamide] was tested, and the pIC50 (human PLK1 kinase domain) was 5.90, the inhibition at 10 µM (human PLK1 kinase domain) was 82.4% and the inhibition at 20 µM (M. tuberculosis H37Rv) was -48.4%.
For CCCOc1ccccc1-c1cc(Nc2ccc(S(=O)(=O)Nc3onc(C)c3C)cc2)ncn1 [Example 10, N-(3,4-Dimethyl-isoxazol-5-yl)-4-[6-(2-propoxy-phenyl)-pyrimidin-4-ylamino]-benzenesulfonamide], the pIC50 (human PLK1 kinase domain) was 6.03, the inhibition at 10 µM (human PLK1 kinase domain) was 104% and the inhibition at 20 µM (M. tuberculosis H37Rv) was -21.2%.
For Cc1noc(NS(=O)(=O)c2ccc(Nc3cc(-c4ccc5c(c4)OCO5)ncn3)cc2)c1C [Example 11, 4-(6-Benzo[1,3]dioxol-5-yl-pyrimidin-4-ylamino)-N-(3,4-dimethyl-isoxazol-5-yl)-benzenesulfonamide], the pIC50 (human PLK1 kinase domain) was 6.05, the inhibition at 10 µM (human PLK1 kinase domain) was 74.4% and the inhibition at 20 µM (M. tuberculosis H37Rv) was -21.5%.
In the case of Cc1noc(NS(=O)(=O)c2ccc(Nc3cc(-c4ccccc4OC(C)C)ncn3)cc2)c1C [Example 13, N-(3,4-Dimethyl-isoxazol-5-yl)-4-[6-(2-isopropoxy-phenyl)-pyrimidin-4-ylamino]-benzenesulfonamide], the pIC50 (human PLK1 kinase domain) was 5.74, the inhibition at 10 µM (human PLK1 kinase domain) was 88.6% and the inhibition at 20 µM (M. tuberculosis H37Rv) was -23%.
With COc1ccc(F)c(F)c1-c1cc(Nc2ccc(S(=O)(=O)Nc3onc(C)c3C)cc2)ncn1 [Example 14, 4-[6-(2,3-Difluoro-6-methoxy-phenyl)-pyrimidin-4-ylamino]-N-(3,4-dimethyl-isoxazol-5-yl)-benzenesulfonamide] the inhibition at 10 µM (human PLK1 kinase domain) was 55.4%.
Cc1noc(NS(=O)(=O)c2ccc(Nc3cc(-c4ccc(F)cc4OC(C)C)ncn3)cc2)c1C [Example 17, N-(3,4-Dimethyl-isoxazol-5-yl)-4-[6-(4-fluoro-2-isopropoxy-phenyl)-pyrimidin-4-ylamino]-benzenesulfonamide] showed a pIC50 (human PLK1 kinase domain) of 6.75, an inhibition at 10 µM (human PLK1 kinase domain) of 68.8% and an inhibition at 20 µM (M. tuberculosis H37Rv) of -1.4%.
For COc1cc(F)ccc1-c1cc(Nc2ccc(S(=O)(=O)Nc3onc(C)c3C)cc2)ncn1 [Example 18, N-(3,4-Dimethyl-isoxazol-5-yl)-4-[6-(4-fluoro-2-methoxy-phenyl)-pyrimidin-4-ylamino]-benzenesulfonamide], the pIC50 (human PLK1 kinase domain) was 7.40, the inhibition at 10 µM (human PLK1 kinase domain) was 63.3% and the inhibition at 20 µM (M. tuberculosis H37Rv) was -8.6%.
Cc1noc(NS(=O)(=O)c2ccc(Nc3cc(-c4ccc(F)cc4Cl)ncn3)cc2)c1C [Example 19, 4-[6-(2-Chloro-4-fluoro-phenyl)-pyrimidin-4-ylamino]-N-(3,4-dimethyl-isoxazol-5-yl)-benzenesulfonamide] was tested, and the pIC50 (human PLK1 kinase domain) was 7.33, the inhibition at 10 µM (human PLK1 kinase domain) was 60.8% and the inhibition at 20 µM (M. tuberculosis H37Rv) was 100%. It also gave an MIC (M. tuberculosis H37Rv) of 19.4 µM (≈ 9.22 µg/mL).
CCc1ccccc1-c1cc(Nc2ccc(S(=O)(=O)Nc3onc(C)c3C)cc2)ncn1 [Example 20, N-(3,4-Dimethyl-isoxazol-5-yl)-4-[6-(2-ethyl-phenyl)-pyrimidin-4-ylamino]-benzenesulfonamide] was tested, and the pIC50 (human PLK1 kinase domain) was 6.02, the inhibition at 10 µM (human PLK1 kinase domain) was 73% and the inhibition at 20 µM (M. tuberculosis H37Rv) was 103%. It also gave an MIC (M. tuberculosis H37Rv) of 4.84 µM (≈ 2.18 µg/mL).
With Cc1noc(NS(=O)(=O)c2ccc(Nc3cc(-c4ccc(F)cc4F)ncn3)cc2)c1C [Example 21, 4-[6-(2,4-Difluoro-phenyl)-pyrimidin-4-ylamino]-N-(3,4-dimethyl-isoxazol-5-yl)-benzenesulfonamide] the pIC50 (human PLK1 kinase domain) was 6.43, the inhibition at 10 µM (human PLK1 kinase domain) was 65.8% and the inhibition at 20 µM (M. tuberculosis H37Rv) was -3.7%.
Cc1noc(NS(=O)(=O)c2ccc(Nc3cc(-c4c(F)cccc4OC(C)C)ncn3)cc2)c1C [Example 23, N-(3,4-Dimethyl-isoxazol-5-yl)-4-[6-(2-fluoro-6-isopropoxy-phenyl)-pyrimidin-4-ylamino]-benzenesulfonamide] gave a pIC50 (human PLK1 kinase domain) of 5.75, an inhibition at 10 µM (human PLK1 kinase domain) of 70.4% and an inhibition at 20 µM (M. tuberculosis H37Rv) of 102%. For the same compound, the MIC (M. tuberculosis H37Rv) was 10.2 µM (≈ 5.1 µg/mL).
Cc1noc(NS(=O)(=O)c2ccc(Nc3cc(-c4cc(Cl)ccc4OC(C)C)ncn3)cc2)c1C [Example 24, 4-[6-(5-Chloro-2-isopropoxy-phenyl)-pyrimidin-4-ylamino]-N-(3,4-dimethyl-isoxazol-5-yl)-benzenesulfonamide] was tested, and the pIC50 (human PLK1 kinase domain) was 5.43, the inhibition at 10 µM (human PLK1 kinase domain) was 80.7% and the inhibition at 20 µM (M. tuberculosis H37Rv) was -20.4%.
Compound Cc1noc(NS(=O)(=O)c2ccc(Nc3cc(-c4ccc(C(F)(F)F)cc4)ncn3)cc2)c1C [Example 25, N-(3,4-Dimethyl-isoxazol-5-yl)-4-[6-(4-trifluoromethyl-phenyl)-pyrimidin-4-ylamino]-benzenesulfonamide] has an inhibition at 10 µM (human PLK1 kinase domain) of 0% and an inhibition at 20 µM (M. tuberculosis H37Rv) of -9.8%.
Compound Cc1noc(NS(=O)(=O)c2ccc(Nc3cc(-c4ccccc4COc4ccc(OC(F)(F)F)cc4)ncn3)cc2)c1C [Example 30, N-(3,4-Dimethyl-isoxazol-5-yl)-4-{6-[2-(4-trifluoromethoxy-phenoxymethyl)-phenyl]-pyrimidin-4-ylamino}-benzenesulfonamide] has an inhibition at 10 µM (human PLK1 kinase domain) of 0%.
COc1ccccc1-c1cc(Nc2ccc(S(=O)(=O)Nc3onc(C)c3C)cc2)ncn1 [Example 31, N-(3,4-Dimethyl-isoxazol-5-yl)-4-[6-(2-methoxy-phenyl)-pyrimidin-4-ylamino]-benzenesulfonamide] was tested, and the pIC50 (human PLK1 kinase domain) was 5.61 and the inhibition at 10 µM (human PLK1 kinase domain) was 79.8%.
Compound Cc1noc(NS(=O)(=O)c2ccc(Nc3cc(-c4cccc(N)c4)ncn3)cc2)c1C [Example 44, 4-[6-(3-Amino-phenyl)-pyrimidin-4-ylamino]-N-(3,4-dimethyl-isoxazol-5-yl)-benzenesulfonamide] has a pIC50 (human PLK1 kinase domain) of 4.94 and an inhibition at 10 µM (human PLK1 kinase domain) of 68%.
Cc1noc(NS(=O)(=O)c2ccc(Nc3cc(-c4ccc(N)cc4)ncn3)cc2)c1C [Example 45, 4-[6-(4-Amino-phenyl)-pyrimidin-4-ylamino]-N-(3,4-dimethyl-isoxazol-5-yl)-benzenesulfonamide] was tested, and the pIC50 (human PLK1 kinase domain) was 5.13 and the inhibition at 10 µM (human PLK1 kinase domain) was 88%.
Work on Cc1noc(NS(=O)(=O)c2ccc(Nc3cc(-c4ccc(C(N)=O)cc4)ncn3)cc2)c1C [Example 46, 4-{6-[4-(3,4-Dimethyl-isoxazol-5-ylsulfamoyl)-phenylamino]-pyrimidin-4-yl}-benzamide] yielded an inhibition at 10 µM (human PLK1 kinase domain) of 24%.
Cc1ccc(COCc2cc(C)cc(-c3cc(Nc4ccc(S(=O)(=O)Nc5onc(C)c5C)cc4)ncn3)c2)cc1 [Example 47, N-(3,4-Dimethyl-isoxazol-5-yl)-4-{6-[3-methyl-5-(4-methyl-benzyloxymethyl)-phenyl]-pyrimidin-4-ylamino}-benzenesulfonamide] gave an inhibition at 10 µM (human PLK1 kinase domain) of -4%.
Cc1noc(NS(=O)(=O)c2ccc(Nc3cc(-c4ccc(N(C)C)cc4)ncn3)cc2)c1C [Example 48, 4-[6-(4-Dimethylamino-phenyl)-pyrimidin-4-ylamino]-N-(3,4-dimethyl-isoxazol-5-yl)-benzenesulfonamide] gave a pIC50 (human PLK1 kinase domain) of 4.85 and an inhibition at 10 µM (human PLK1 kinase domain) of 87%.
